Source: patent publication US7605272B2, “IGF-1R inhibitor” (Kyowa Hakko Kirin Co., Ltd., priority 2005, dated 2009)
Where a name gives a salt, the structure may show the parent alone.

What follows are compounds tested against T1, IGF-1R (Homo sapiens, UniProt P08069) (assay: IGF-1R inhibitory activity (kinase reaction, time-resolved fluoroimmunoassay)). Settings: IGF-1R active recombinant enzyme, test compound 10 μmol/L.
T1 construct: purchased Upstate Co. 14-465
Assay type: biochemical
Description: The IGF-1R inhibitory activity was measured in the following manner.
As IGF-1R, active recombinant enzyme (Catalog No. 14-465) purchased from Upstate Co., was used. To 96 well plate (FIA-PLATE BLACK 96 well FALT-BOTTOM HIGH BINDING, Greiner Bio-one, Catalog No. 655077) coated with NeutroAvidin (Pierce, Catalog No. 31000), biotinylated polyglutamic acid-tyrosine peptide (Nihon Schering K.K., Catalog No. 61GT0BAA) was immobilized and then blocked with 0.25% gelatin to be used as a plate for measuring the kinase reaction. Separately was prepared a solution containing at final concentrations, IGF-1R (200 μg/L), Tris.HCl(pH 7.5)(20 mmol/L), Na3VO4(0.1 mmol/L), MgCl2(1 mmol/L), MnCl2(10 mmol/L), ATP(10 mmol/L), 2-mercaptoethanol (0.04%), BSA(Bovine Serum Albumin) (0.1%), DMSO(0.1%), test compound (10 μmol/L). The solution (each 50 μL) was added to the well of the plate for measuring the kinase reaction and then, enzyme reaction was performed for 30 minutes at 24° C. The plate was washed with TBS-T [10 mmol/L Tris Cl (pH 7.5), 150 mmol/L NaCl, 0.05% Tween 20 (Bio-Rad, Catalog No. 170-6531)] 4 times, then reacted with europium-labeled anti-phosphotyrosine antibody, further washed with TBS-T 4 times and then, measured with time-resolved fluoroimmunoassay (excitation wavelength 340 nm, measuring wavelength 615 nm). The value of a well to which the test compound had not been added was considered as 100% and that of a well where the enzyme and the test compound had not been added was considered as 0%. The relative activity (%) of the well which was added with enzyme and the test compound was measured and by subtracting the calculated value from 100, IGF-1R inhibitory activity of the test compound (%) was determined.

T1 sequence (P08069 959-1367 limits assumed): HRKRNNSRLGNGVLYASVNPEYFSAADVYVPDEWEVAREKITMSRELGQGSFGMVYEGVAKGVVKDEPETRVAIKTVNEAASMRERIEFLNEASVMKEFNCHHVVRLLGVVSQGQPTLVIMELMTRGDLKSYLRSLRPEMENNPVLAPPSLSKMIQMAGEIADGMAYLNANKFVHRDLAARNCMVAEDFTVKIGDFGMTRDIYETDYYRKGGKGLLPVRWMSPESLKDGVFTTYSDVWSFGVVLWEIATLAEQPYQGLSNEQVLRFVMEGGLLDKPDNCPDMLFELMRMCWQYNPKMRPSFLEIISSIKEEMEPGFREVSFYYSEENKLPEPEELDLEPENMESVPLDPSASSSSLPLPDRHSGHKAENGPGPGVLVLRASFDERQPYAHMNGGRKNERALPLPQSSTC

Compound | inhibition at 10 µM | inhibitory activity (%) at 10 μmol/L
O=C1c2ccsc2C(=O)N1c1ccccc1/C=C/c1n[nH]c2ccccc12 [Compound 209, (E)-5-{2-[2-(1H-indazol-3-yl)vinyl]phenyl}thieno[2,3-c]pyrrole-4,6-dione] | 99.5% | 
Cc1ccc(C)n1-c1ccccc1/C=C/c1n[nH]c2ccccc12 [Compound 190] |  | 96.9%
Cc1csc(NC(=O)c2ccccc2/C=C/c2n[nH]c3ccccc23)n1 [Compound 143, (E)-2-[2-(1H-indazol-3-yl)vinyl]-N-(4-methylthiazol-2-yl)benzamide] | 94.9% | 
O=C1CCC(=O)N1c1ccccc1/C=C/c1n[nH]c2ccccc12 [Compound 211, (E)-1-{2-[2-(1H-indazol-3-yl)vinyl]phenyl}pyrrolidine-2,5-dione] | 86.7% | 
O=C1CCCN1c1ccccc1/C=C/c1n[nH]c2ccccc12 [Compound 208, (E)-1-{2-[2-(1H-indazol-3-yl)vinyl]phenyl}pyrrolidin-2-one] | 96.1% | 
O=C(Nc1ccccc1/C=C/c1n[nH]c2ccccc12)c1ccc(CO)cc1 [Compound 79, (E)-4-hydroxymethyl-N-{2-[2-(1H-indazol-3-yl)vinyl]phenyl}benzamide] | 97.2% | 
Cc1cc(C(=O)Nc2ccccc2/C=C/c2n[nH]c3ccccc23)ccc1[N+](=O)[O-] [Compound 157, (E)-N-{2-[2-(1H-indazol-3-yl)vinyl]phenyl}-3-methyl-4-nitrobenzamide] | 96% | 
CNC(=O)c1nc(-c2ccccc2/C=C/c2n[nH]c3ccccc23)no1 [Compound 177, (E)-3-{2-[2-(1H-indazol-3-yl)vinyl]phenyl}-N-methyl[1,2,4]oxadiazole-5-carboxamide] | 99.4% | 
O=C1C2=C(CCCC2)C(=O)N1c1ccccc1/C=C/c1n[nH]c2ccccc12 [Compound 203, (E)-2-{2-[2-(1H-indazol-3-yl)vinyl]phenyl}-4,5,6,7-tetrahydroisoindole-1,3-dione] | 101% | 
O=C1c2cccc(O)c2C(=O)N1c1ccccc1/C=C/c1n[nH]c2ccccc12 [Compound 200, (E)-4-hydroxy-2-{2-[2-(1H-indazol-3-yl)vinyl]phenyl}isoindole-1,3-dione] | 67.5% | 
Cn1cccc1C(=O)Nc1ccc(N2CCOCC2)cc1/C=C/c1n[nH]c2ccccc12 [Compound 226, (E)-N-{2-[2-(1H-indazol-3-yl)vinyl]-4-(morpholin-4-yl)phenyl}-1-methyl-1H-pyrrole-2-carboxamide hydrochloride] | 97.8% | 
O=C(Nc1cc(Cl)ccc1/C=C/c1n[nH]c2ccccc12)c1cccs1 [Compound 257, (E)-{5-chloro-2-[2-(1H-indazol-3-yl)vinyl]phenyl}thiophene-2-carboxamide] |  | 101.8%
O=C(O)c1csc(Nc2ccccc2/C=C/c2n[nH]c3ccccc23)n1 [Compound 170, (E)-2-{2-[2-(1H-indazol-3-yl)vinyl]phenylamino}thiazole-4-carboxylic acid] | 69.8% | 
OCCc1nc(-c2ccccc2/C=C/c2n[nH]c3ccccc23)no1 [Compound 181, (E)-2-{3-{2-[2-(1H-indazol-3-yl)vinyl]phenyl}[1,2,4]oxadiazol-5-yl}ethanol] | 98.9% | 
O=C1CNC(=O)N1c1ccccc1/C=C/c1n[nH]c2ccccc12 [Compound 212, (E)-3-{2-[2-(1H-indazol-3-yl)vinyl]phenyl}imidazolidine-2,4-dione] | 83.6% | 
O=C1c2ccccc2C(=O)N1c1cc(Cl)ccc1/C=C/c1n[nH]c2ccccc12 [Compound 258, (E)-2-{5-chloro-2-[2-(1H-indazol-3-yl)vinyl]phenyl}isoindole-1,3-dione] | 100% | 

Compound | inhibition at 10 µM | inhibitory activity (%) at 10 μmol/L
Nc1ccc2oc(-c3ccccc3/C=C/c3n[nH]c4ccccc34)nc2c1 [Compound 185, (E)-2-{2-[2-(1H-indazol-3-yl)vinyl]phenyl}benzoxazol-5-ylamine] | 93.2% | 
O=Cc1ccn(-c2ccccc2/C=C/c2n[nH]c3ccccc23)c1 [Compound 167, (E)-1-{2-[2-(1H-indazol-3-yl)vinyl]phenyl}-1H-pyrrole-3-carbaldehyde] | 94.1% | 
Cc1ccsc1/C=N/c1ccccc1C=Cc1n[nH]c2ccccc12 [Compound 160, (E)-N-{2-[2-(1H-indazol-3-yl)vinyl]phenyl}(3-methylthiophen-2-ylmethylene)amine] | 98.4% | 
O=C(Nc1ccccc1/C=C/c1n[nH]c2ccccc12)c1cc2ccccc2[nH]1 [Compound 50, (E)-N-{2-[2-(1H-indazol-3-yl)vinyl]phenyl}-1H-indole-2-carboxamide] | 98.5% | 
CSc1ccccc1/C=C/c1n[nH]c2ccccc12 [Compound 146, (E)-3-[2-(2-methylsulfanylphenyl)vinyl]-1H-indazole] | 78.3% | 
OCc1nc(-c2ccccc2/C=C/c2n[nH]c3ccccc23)no1 [Compound 179, (E)-3-{2-[2-(1H-indazol-3-yl)vinyl]phenyl}[1,2,4]oxadiazol-5-ylmethanol] | 99.6% | 
C(=C\c1n[nH]c2ccccc12)/c1ccccc1Nc1ccccn1 [Compound 164, (E)-N-{2-[2-(1H-indazol-3-yl)vinyl]phenyl}-2-pyridylamine] | 99.1% | 
C(=C\c1cccc2nc(-c3cccs3)oc12)/c1n[nH]c2ccccc12 [Compound 149, (E)-7-[2-(1H-indazol-3-yl)vinyl]-2-(thiophen-2-yl)benzoxazole] | 70% | 
Nc1cccc2c1CN(c1cc(CN3CCN(CCO)CC3)ccc1/C=C/c1n[nH]c3ccccc13)C2=O [Compound 345, (E)-4-amino-2-{5-[4-(2-hydroxyethyl)piperazin-1-ylmethyl]-2-[2-(1H-indazol-3-yl)vinyl]phenyl}-2,3-dihydroisoindole-1-one] | 105% | 
OCc1csc(Nc2ccccc2/C=C/c2n[nH]c3ccccc23)n1 [Compound 173, (E)-2-{2-[2-(1H-indazol-3-yl)vinyl]phenylamino}thiazole-4-methanol] | 97.8% | 
O=C1C(Cl)=C(Cl)C(=O)N1c1ccccc1/C=C/c1n[nH]c2ccccc12 [Compound 207, (E)-3,4-dichloro-1-{2-[2-(1H-indazol-3-yl)vinyl]phenyl}pyrrole-2,5-dione] | 98.1% | 
CCNc1ccc2c(c1)C(=O)N(c1ccccc1/C=C/c1n[nH]c3ccccc13)C2=O [Compound 201, (E)-5-ethylamino-2-{2-[2-(1H-indazol-3-yl)vinyl]phenyl}isoindole-1,3-dione] | 99.1% | 
C(=Cc1n[nH]c2ccccc12)c1ccccc1Nc1cnccn1 [Compound 155, N-{2-[2-(1H-indazol-3-yl)vinyl]phenyl}-2-pyrazylamine] |  | 97.9%
O=C(c1ccc(/C=C/c2n[nH]c3ccccc23)c(N2C(=O)c3ccccc3C2=O)c1)N1CCN(CCO)CC1 [Compound 286, (E)-2-[5-[4-(2-hydroxyethyl)piperazin-1-ylcarbonyl]-2-[2-(1H-indazol-3-yl)vinyl]phenyl]isoindole-1,3-dione] | 96.1% | 
CN1CCN(C(=O)c2ccc(/C=C/c3n[nH]c4ccccc34)c(N3C(=O)c4ccccc4C3=O)c2)CC1 [Compound 287] |  | 97.1%
O=C1c2ccc([N+](=O)[O-])cc2C(=O)N1c1ccccc1/C=C/c1n[nH]c2ccccc12 [Compound 192, (E)-2-{2-[2-(1H-indazol-3-yl)vinyl]phenyl}-5-nitroisoindole-1,3-dione] | 92.3% | 

Same assay, conditions: test compound 10 μmol/L

Compound | inhibition at 10 µM | inhibitory activity (%) at 10 μmol/L
O=C(Nc1ccccc1/C=C/c1n[nH]c2ccccc12)c1ccc([N+](=O)[O-])cc1Cl [Compound 81, (E)-2-chloro-N-{2-[2-(1H-indazol-3-yl)vinyl]phenyl}-4-nitrobenzamide] | 60.7% | 
CSc1ccc(C(=O)Nc2ccccc2/C=C/c2n[nH]c3ccccc23)cc1 [Compound 82, (E)-N-{2-[2-(1H-indazol-3-yl)vinyl]phenyl}-4-methylsulphanylbenzamide] | 84.7% | 
Cc1ccsc1C(=O)Nc1cc(C(=O)N(C)C)ccc1/C=C/c1n[nH]c2ccccc12.Cl [Compound 125, (E)-N-{5-(N,N-dimethylcarbamoyl)-2-[2-(1H-indazol-3-yl)vinyl]phenyl}-3-methylthiophene-2-carboxamide hydrochloride] |  | 100.9%
COC1CCN(C(=O)c2ccc(/C=C/c3n[nH]c4ccccc34)c(NC(=O)c3sccc3C)c2)CC1.Cl [Compound 127, (E)-N-{2-[2-(1H-indazol-3-yl)vinyl]-5-(4-methoxypiperidin-1-ylcarbonyl)phenyl}-3-methylthiophene-2-carboxamide hydrochloride] |  | 101.9%
Cc1ccsc1C(=O)Nc1cc(C(=O)N2CCN(C)CC2)ccc1/C=C/c1n[nH]c2ccccc12 [Compound 126, (E)-N-{2-[2-(1H-indazol-3-yl)vinyl]-5-(4-methylpiperazin-1-ylcarbonyl)phenyl}-3-methylthiophene-2-carboxamide] | 98.8% | 
